Measured values reported in ChEMBL document CHEMBL4414672, “Synthesis of certain benzothieno[3,2-d]pyrimidine derivatives as a selective SIRT2 inhibitors” (Eur J Med Chem, 2020).

Tests used:
Type in all cases: functional
[1] = tested on: Hs-578T; assay: Growth inhibition of human Hs 578T cells at 10^-5 M incubated for 48 hrs by sulforhodamine B assay; conditions: read-out: GI
[2] = tested on: OVCAR-4; assay: Growth inhibition of human OVCAR4 cells at 10^-5 M incubated for 48 hrs by sulforhodamine B assay; conditions: OVCAR-4, 48 h, read-out: GI
[3] = tested on: Malme-3M; assay: Growth inhibition of human MALME-3M cells at 10^-5 M incubated for 48 hrs by sulforhodamine B assay; conditions: read-out: GI
[4] = tested on: SF-539; assay: Growth inhibition of human SF539 cells at 10^-5 M incubated for 48 hrs by sulforhodamine B assay; conditions: SF-539, 48 h, read-out: GI
[5] = tested on: K562; assay: Growth inhibition of human K562 cells at 10^-5 M incubated for 48 hrs by sulforhodamine B assay; conditions: K562, 48 h, read-out: GI
[6] = tested on: MDA-MB-435; assay: Growth inhibition of human MDA-MB-435 cells at 10^-5 M incubated for 48 hrs by sulforhodamine B assay; conditions: MDA-MB-435, 48 h, read-out: GI
[7] = tested on: NCI-H522; assay: Growth inhibition of human NCI-H522 cells at 10^-5 M incubated for 48 hrs by sulforhodamine B assay; conditions: NCI-H522, 48 h, read-out: GI
[8] = tested on: A498; assay: Growth inhibition of human A498 cells at 10^-5 M incubated for 48 hrs by sulforhodamine B assay; conditions: A498, 48 h, read-out: GI
[9] = tested on: DU-145; assay: Growth inhibition of human DU145 cells at 10^-5 M incubated for 48 hrs by sulforhodamine B assay; conditions: DU-145, 48 h, read-out: GI
[10] = tested on: SF-295; assay: Growth inhibition of human SF295 cells at 10^-5 M incubated for 48 hrs by sulforhodamine B assay; conditions: SF-295, 48 h, read-out: GI
[11] = tested on: SK-MEL-2; assay: Growth inhibition of human SK-MEL-2 cells at 10^-5 M incubated for 48 hrs by sulforhodamine B assay; conditions: SK-MEL-2, 48 h, read-out: GI
[12] = tested on: TK-10; assay: Growth inhibition of human TK10 cells at 10^-5 M incubated for 48 hrs by sulforhodamine B assay; conditions: TK-10, 48 h, read-out: GI
[13] = tested on: NCI-H23; assay: Growth inhibition of human NCI-H23 cells at 10^-5 M incubated for 48 hrs by sulforhodamine B assay; conditions: NCI-H23, 48 h, read-out: GI
[14] = tested on: KM12; assay: Growth inhibition of human KM12 cells at 10^-5 M incubated for 48 hrs by sulforhodamine B assay; conditions: KM12, 48 h, read-out: GI
[15] = tested on: SN12C; assay: Growth inhibition of human SN12C cells at 10^-5 M incubated for 48 hrs by sulforhodamine B assay; conditions: read-out: GI
[16] = tested on: SF-268; assay: Growth inhibition of human SF268 cells at 10^-5 M incubated for 48 hrs by sulforhodamine B assay; conditions: SF-268, 48 h, read-out: GI
[17] = tested on: EKVX; assay: Growth inhibition of human EKVX cells at 10^-5 M incubated for 48 hrs by sulforhodamine B assay; conditions: read-out: GI
[18] = tested on: HL-60(TB); assay: Growth inhibition of human HL-60(TB) cells at 10^-5 M incubated for 48 hrs by sulforhodamine B assay; conditions: HL-60, 48 h, read-out: GI
[19] = tested on: LOX IMVI; assay: Growth inhibition of human LOXIMVI cells at 10^-5 M incubated for 48 hrs by sulforhodamine B assay; conditions: read-out: GI
[20] = tested on: UACC-62; assay: Growth inhibition of human UACC62 cells at 10^-5 M incubated for 48 hrs by sulforhodamine B assay; conditions: UACC-62, 48 h, read-out: GI
[21] = tested on: HT-29; assay: Growth inhibition of human HT-29 cells at 10^-5 M incubated for 48 hrs by sulforhodamine B assay; conditions: HT-29, 48 h, read-out: GI
[22] = tested on: HOP-62; assay: Growth inhibition of human HOP62 cells at 10^-5 M incubated for 48 hrs by sulforhodamine B assay; conditions: HOP-62, 48 h, read-out: GI
[23] = tested on: PC-3; assay: Growth inhibition of human PC3 cells at 10^-5 M incubated for 48 hrs by sulforhodamine B assay; conditions: PC-3, 48 h, read-out: GI
[24] = tested on: HOP-92; assay: Growth inhibition of human HOP92 cells at 10^-5 M incubated for 48 hrs by sulforhodamine B assay; conditions: HOP-92, 48 h, read-out: GI
[25] = tested on: M14; assay: Growth inhibition of human M14 cells at 10^-5 M incubated for 48 hrs by sulforhodamine B assay; conditions: M14, 48 h, read-out: GI
[26] = tested on: NCI-H460; assay: Growth inhibition of human NCI-H460 cells at 10^-5 M incubated for 48 hrs by sulforhodamine B assay; conditions: NCI-H460, 48 h, read-out: GI
[27] = tested on: HCT-116; assay: Growth inhibition of human HCT116 cells at 10^-5 M incubated for 48 hrs by sulforhodamine B assay; conditions: HCT-116, 48 h, read-out: GI
[28] = tested on: ACHN; assay: Growth inhibition of human ACHN cells at 10^-5 M incubated for 48 hrs by sulforhodamine B assay; conditions: read-out: GI
[29] = tested on: MCF7; assay: Growth inhibition of human MCF7 cells at 10^-5 M incubated for 48 hrs by sulforhodamine B assay; conditions: MCF7, 48 h, read-out: GI
[30] = tested on: OVCAR-8; assay: Growth inhibition of human OVCAR8 cells at 10^-5 M incubated for 48 hrs by sulforhodamine B assay; conditions: OVCAR-8, 48 h, read-out: GI
[31] = tested on: SNB-19; assay: Growth inhibition of human SNB19 cells at 10^-5 M incubated for 48 hrs by sulforhodamine B assay; conditions: SNB-19, 48 h, read-out: GI
[32] = tested on: CCRF-CEM; assay: Growth inhibition of human CCRF-CEM cells at 10^-5 M incubated for 48 hrs by sulforhodamine B assay; conditions: read-out: GI
[33] = tested on: UACC-257; assay: Growth inhibition of human UACC257 cells at 10^-5 M incubated for 48 hrs by sulforhodamine B assay; conditions: UACC-257, 48 h, read-out: GI
[34] = tested on: SK-MEL-28; assay: Growth inhibition of human SK-MEL-28 cells at 10^-5 M incubated for 48 hrs by sulforhodamine B assay; conditions: SK-MEL-28, 48 h, read-out: GI
[35] = tested on: SK-OV-3; assay: Growth inhibition of human SKOV3 cells at 10^-5 M incubated for 48 hrs by sulforhodamine B assay; conditions: SK-OV-3, 48 h, read-out: GI
[36] = tested on: OVCAR-5; assay: Growth inhibition of human OVCAR5 cells at 10^-5 M incubated for 48 hrs by sulforhodamine B assay; conditions: OVCAR-5, 48 h, read-out: GI
[37] = tested on: 786-0; assay: Growth inhibition of human 786-0 cells at 10^-5 M incubated for 48 hrs by sulforhodamine B assay; conditions: 786-0, 48 h, read-out: GI
[38] = tested on: IGROV-1; assay: Growth inhibition of human IGROV1 cells at 10^-5 M incubated for 48 hrs by sulforhodamine B assay; conditions: IGROV-1, 48 h, read-out: GI
[39] = tested on: UO-31; assay: Growth inhibition of human UO31 cells at 10^-5 M incubated for 48 hrs by sulforhodamine B assay; conditions: UO-31, 48 h, read-out: GI

SMILES	inhibition of growth at 10 µM [1] [%]	inhibition of growth at 10 µM [2] [%]	inhibition of growth at 10 µM [3] [%]	inhibition of growth at 10 µM [4] [%]	inhibition of growth at 10 µM [5] [%]	inhibition of growth at 10 µM [6] [%]	inhibition of growth at 10 µM [7] [%]	inhibition of growth at 10 µM [8] [%]	inhibition of growth at 10 µM [9] [%]	inhibition of growth at 10 µM [10] [%]	inhibition of growth at 10 µM [11] [%]	inhibition of growth at 10 µM [12] [%]	inhibition of growth at 10 µM [13] [%]	inhibition of growth at 10 µM [14] [%]	inhibition of growth at 10 µM [15] [%]	inhibition of growth at 10 µM [16] [%]	inhibition of growth at 10 µM [17] [%]	inhibition of growth at 10 µM [18] [%]	inhibition of growth at 10 µM [19] [%]	inhibition of growth at 10 µM [20] [%]	other results
O=[N+]([O-])c1cccc(C2NC(=S)Nc3c2sc2ccc(Cl)cc32)c1 (stereo not drawn)	11.4	8.46	17.3	5.63	10.6	-3.92	13.7	19.7	-8.3	5.63	-9.95	-6.1	14.5	1.91	7.47	4.17	26.5	-2.41	7.83	8.94	inhibition of growth at 10 µM [21]: 4%; inhibition of growth at 10 µM [22]: 21.8%; inhibition of growth at 10 µM [23]: 15.4%; inhibition of growth at 10 µM [24]: 6.43%; inhibition of growth at 10 µM [25]: 2.86%; inhibition of growth at 10 µM [26]: 11.4%; inhibition of growth at 10 µM [27]: 13.4%; inhibition of growth at 10 µM [28]: 13%; inhibition of growth at 10 µM [29]: -8.3%; inhibition of growth at 10 µM [30]: 4.42%; inhibition of growth at 10 µM [31]: 8.69%; inhibition of growth at 10 µM [32]: -11.8%; inhibition of growth at 10 µM [33]: -0.4%; inhibition of growth at 10 µM [34]: -8.2%; inhibition of growth at 10 µM [35]: 10.5%; inhibition of growth at 10 µM [36]: 0.45%; inhibition of growth at 10 µM [37]: 1.48%; inhibition of growth at 10 µM [38]: 27.5%; inhibition of growth at 10 µM [39]: -6.1%
Cc1cc(C)n(C2=Nc3c(sc4ccc(Cl)cc34)C(c3cccc([N+](=O)[O-])c3)N2)n1 (stereo not drawn)	0.17	-2.96	-2.21	-0.76	4.14	-3.52	10.8	1.15	-11.3	2.13	-5.1	-12.7	23	2.61	5.84	1.15	24.2	-2.76	0.51	9.64	inhibition of growth at 10 µM [21]: -2.6%; inhibition of growth at 10 µM [22]: 18.2%; inhibition of growth at 10 µM [23]: 18.6%; inhibition of growth at 10 µM [24]: -4.25%; inhibition of growth at 10 µM [25]: -4.17%; inhibition of growth at 10 µM [26]: 7.9%; inhibition of growth at 10 µM [27]: 5.98%; inhibition of growth at 10 µM [28]: 11.2%; inhibition of growth at 10 µM [29]: 20.6%; inhibition of growth at 10 µM [30]: 0.5%; inhibition of growth at 10 µM [31]: 3.18%; inhibition of growth at 10 µM [32]: -7.22%; inhibition of growth at 10 µM [33]: -4.2%; inhibition of growth at 10 µM [34]: -16%; inhibition of growth at 10 µM [35]: 11.4%; inhibition of growth at 10 µM [36]: -4.21%; inhibition of growth at 10 µM [37]: -6.44%; inhibition of growth at 10 µM [38]: 20.6%; inhibition of growth at 10 µM [39]: 43.7%
